Our source for the logP values is the OPERA property sets (Mansouri et al. 2018).

As a reminder, the logP is the decadic logarithm of the partition coefficient of the neutral form, usually between octanol and water. Lower therefore signals lower lipophilicity.

Peptide text beside a SMILES is read from it.

Regarding `CC(=O)OCC(=O)[C@@]1(O)CC[C@H]2[C@@H]3CCC4=CC(=O)C=C[C@]4(C)[C@H]3[C@@H](O)C[C@@]21C`, the lipophilicity (logP) stood at 2.4. Compound `Cc1ccc(Cl)cc1Cl` registered a lipophilicity (logP) of 4.24.

For `CC[C@H](C)[C@H](NC(=O)[C@@H](NC(C)=O)C(C)C)C(=O)NCC(N)=O` (Ac-Val-Ile-Gly-NH2), the logP was -0.45. The compound `CCCC(=O)NN` had a logP of -0.62. In the case of `NCc1ccc([N+](=O)[O-])cc1` it was 1.06.

Compound `ClC(Cl)=C(Cl)Cl` came in with a logP of 3.4. In the case of `CNC(=O)Oc1ccccc1Cl` it was 1.64; in that of `c1nnnn1C12CC3CC(CC(C3)C1)C2`, 2.95.

With `Brc1ccc2ncccc2c1`, the log partition coefficient (logP) amounted to 2.83.

For the compound `CC(C)OC(=O)c1cc(O)c(O)c(O)c1`, the log partition coefficient (logP) was found to be 1.54.

For `NNS(=O)(=O)c1ccccc1`, the log partition coefficient (logP) was -0.14. Compound `CNC(=O)Oc1cccc2c1OC(C)(C)C2` had a logP of 2.32.

In turn, `C=CNP(=O)(NC=C)NC(=O)c1cccc(OC)c1` gave a log partition coefficient (logP) of 0.86.

`OCCCCCc1cccnc1` showed a log partition coefficient (logP) of 1.41. With `COc1ccc(N2C(=O)CCC2=O)cc1` the figure was 0.15; with `Nc1ccccc1-c1ccccc1`, 2.84. The compound `CNP(=O)(OC)Oc1ccccc1Cl` (stereo not given) came in with a logP of 1.61. In the case of `O=C(O)Cc1ccccc1Nc1cc(Cl)ccc1Cl` it was 4.94. With `NS(=O)(=O)c1ccc(O)cc1` the figure was 0.06. In the case of `CC(=O)OCC1CCC(n2cnc3c(=O)[nH]cnc32)O1` (stereo not given) it was -0.9; in that of `CNC(=O)Oc1cccc(C)c1C`, 1.95. The compound `CCOC(=O)N(C)C` showed a logP of 0.89.

The compound `CCCCC(=O)OCC(=O)C1(O)CCC2C3CCC4=CC(=O)CCC4(C)C3C(O)CC21C` (stereo not given) returned a logP of 3.62. In the case of `O=C(O)CNC(=O)c1ccccc1` it was 0.31; in that of `CC(=O)c1ccccn1`, 0.85. With `O=C(CNC(=O)c1ccccc1)Oc1cccc([N+](=O)[O-])c1` the figure was 2.46; with `CC1OC(C)OC(C)O1` (stereo not given), 0.67.

With `COc1ccc(NC(=O)N(C)C)cc1Cl`, the lipophilicity (logP) was 1.64. On to `CN(C)C(=O)Nc1cccc([N+](=O)[O-])c1`, for which the logP came out at 1.46. The compound `CC(C)OC(=O)C(C(=O)OC(C)C)=C1SCCS1=O` (stereo not given) came in with a logP of 1.6. With `CCCOC(=O)C(C(=O)OCCC)=C1SC=CS1` the figure was 3.93.

`O=[N+]([O-])c1cc(Cl)c(Cl)cc1Cl` gave a logP of 3.48. In the case of `CC1C(c2ccccc2)OCCN1N=O` (stereo not given) it was 2.09; in that of `O=C(O)c1ccccc1Oc1ccccc1`, 3.11; in that of `Clc1cncc(Cl)c1`, 2.56.

Turning to `CCCCOCCO`, the log partition coefficient (logP) was found to be 0.83. With `COc1ccccc1C=CC(=O)OCCOc1ccc(C=NO)cc1OC` the figure was 3.56; with `c1cn(C23CC4CC(CC(C4)C2)C3)cn1`, 2.9. With `CC(C)CCOC(=O)c1cc(O)c(O)c(O)c1` the figure was 2.8. With `CNc1nc2ccccc2o1` the figure was 1.82. For `NCCCNC(=O)c1ccccc1`, the logP was 0.3. In turn, `C=CC(=O)OCCO` came in with a logP of -0.21.

In turn, `c1ccc2c(c1)Oc1ccccc1S2` yielded a lipophilicity (logP) of 4.54. For `CN(C)c1ccc(C(=O)c2ccc(N(C)C)cc2)cc1`, the logP was found to be 3.87. `CCCCN(CCCC)CC(O)c1ccccc1` (stereo not given) had a log partition coefficient (logP) of 3.16. Turning to `CCN(CC)CCNc1ccc(C)c(Cl)c1`, the logP was 4.14. Compound `CCCCNc1nc(NC(C)C)nc(SC(F)F)n1` had a logP of 4.75.

The compound `CCc1cccc(N2C(=O)CCC2=O)c1` yielded a logP of 1.04.

`O=[N+]([O-])c1cn[nH]c1` came in with a logP of 0.59.

For `CCCCNc1ccc(C(=O)OCCOCCOCCOCCOCCOCCOCCOCCOCCOC)cc1`, the logP was 2.45. The compound `c1ccc2nnccc2c1` had a logP of 0.93. As to `O=[N+]([O-])c1ccc2sccc2c1`, the log partition coefficient (logP) turned out to be 2.92. With `O=c1cc[nH]cn1` the figure was -1.38; with `CNC(=O)Oc1cc(C(C)C)cc(C(C)C)c1`, 3.79; with `Cc1ccnc2c(O)ccc(O)c12`, 1.59. `CC(=O)c1ccc(N2CCCCC2)cc1` came in with a logP of 3.13. In the case of `CCC(C)NC(=O)C=Cc1ccccc1` (stereo not given) it was 2.85. Compound `CC12CCC(=O)C=C1CCC1C2C(O)CC2(C)C1CCC2(O)C(=O)COC(=O)CCCCCC(=O)O` (stereo not given) had a logP of 3.26. In the case of `CN(C)c1nc(Cl)nc(N(C)C)n1` it was 2.31; in that of `CC(C)N(C)/N=N/c1ccc(C(N)=O)cc1`, 2.02; in that of `CCCCC#N`, 1.12. In the case of `CN(C)C(=O)OCc1cccc(Cl)c1` it was 2.82. `NS(=O)(=O)c1cc2c(cc1Cl)NC(CCl)NS2(=O)=O` (stereo not given) displayed a lipophilicity (logP) of 0.11.

As to `CC1=Nc2ccc(Cl)cc2S(=O)(=O)N1`, the logP was 1.2. With `O=C1c2ccccc2C(=O)N1CCCCBr` the figure was 2.96; with `Nc1nc(C=Cc2ccc([N+](=O)[O-])o2)no1`, 1.3; with `CCC(=O)OCC(=O)[C@@]1(OC(=O)CC)[C@@H](C)C[C@H]2[C@@H]3CCC4=CC(=O)C=C[C@]4(C)[C@@]3(F)[C@@H](O)C[C@@]21C`, 4.07.

`C#CCCC(C)=O` showed a logP of 0.58.

For `Oc1cccc2c(O)cccc12`, the logP was 1.94.

Compound `Nc1ccccc1I` displayed a log partition coefficient (logP) of 2.32. With `CCCC(=NOCC)C1C(=O)CC2(CCC(C)C2)OC1=O` (stereo not given) the figure was 3.66; with `C=C[C@@]12COC(=O)C(=C)[C@@H]1[C@H]1OC(=O)C(=C)[C@@H]1[C@@H](O)C2`, 0.31. With `CCCN(CCC)C1CCOc2c(O)cccc21` (stereo not given), the logP was determined as 3.3. Turning to `CC(C)C[C@H](N)C(=O)O`, the logP was -1.52.

For the compound `CC/C(=C\c1ccccc1)[N+](=O)[O-]`, the lipophilicity (logP) was 2.86. In the case of `O=Nc1ccc(O)cc1` it was 1.29. Regarding `Cc1ccnc2c(O)cccc12`, the logP worked out at 2.41. With `O=C(O)c1cc([N+](=O)[O-])ccc1Cl` the figure was 2.03; with `CCCCCCN(C)N=Nc1ccc(C(N)=O)cc1`, 3.69; with `O=C(O)CCCN1C(=O)C=CC1=O`, 0.4. Regarding `CCc1ccc2ccccc2c1`, the log partition coefficient (logP) was 4.38. In the case of `CON(C)/N=N/c1ccc(C(N)=O)cc1` it was 1.19. Compound `N#Cc1cnc2ccccc2c1` registered a lipophilicity (logP) of 1.57. `CCCCCl` displayed a lipophilicity (logP) of 2.64. In the case of `Nc1c([N+](=O)[O-])cccc1[N+](=O)[O-]` it was 1.79. On to `O=C(Nc1ccc(Cl)c(Cl)c1)C1CC1`, for which the logP is 3.83.

The compound `Cc1ncc(CNC(=O)N(CCCl)N=O)c(N)n1` displayed a logP of 0.39. In the case of `CCOCC` it was 0.89; in that of `O=C(O)Cc1ccc(O)cc1`, 0.75; in that of `CC(=O)OCC1OC(n2ccnc2[N+](=O)[O-])C(OC(C)=O)C(OC(C)=O)C1OC(C)=O` (stereo not given), 0.52. `Nc1nc(N)nc(-c2ccccc2[N+](=O)[O-])n1` registered a lipophilicity (logP) of 0.49. This logP and that of the compound before are within 0.2 log units of each other. With `COc1ccc2nc(N)[nH]c2c1` the figure was 0.57; with `COC(F)(F)C(Cl)Cl`, 2.21; with `O=[N+]([O-])c1ncn(CC(O)CN2CC2)n1` (stereo not given), -0.72. In the case of `COc1ccccc1OCC(=O)NNC(C)C`, the log partition coefficient (logP) came out at 1.11. In the case of `CC1(C)C=Cc2ccccc2O1` it was 3.31; in that of `CCOC(=O)C=Cc1ccccc1`, 2.99; in that of `Brc1nc(Br)c(Br)[nH]1`, 1.96. `Oc1cccc2cccnc12` yielded a log partition coefficient (logP) of 2.02. With `Nc1ccccc1C(F)(F)F` the figure was 2.41; with `CCOc1cccc(Cl)n1`, 2.55; with `NC(Cc1c[nH]c2ccc(F)cc12)C(=O)O` (stereo not given), -0.71. The compound `CC(C)=NOCCOC(=O)[C@@H](C)Oc1ccc(Oc2cnc3cc(Cl)ccc3n2)cc1` gave a logP of 4.6. In the case of `O=C(O)COc1cccc(NC(=O)c2ccccc2)c1` it was 1.99; in that of `Cc1ccc(NC(=O)N(C)C)cc1Cl`, 2.41; in that of `Brc1ccsc1`, 2.62. In the case of `CCc1ccsc1` it was 2.82.

In turn, `CCOC(=O)CBr` yielded a log partition coefficient (logP) of 1.12. In turn, `Oc1ccc(-c2ccccc2)cc1` showed a logP of 3.2. With `O=C(O)c1cc(Cl)ccc1[N+](=O)[O-]` the figure was 2.13; with `CNC(=O)c1cccnc1`, 0. In the case of `CCOC(=O)NCCOc1ccc(Oc2ccccc2)cc1` it was 4.3. In the case of `COc1cccc(C=C(C(N)=O)C(N)=O)c1` it was 0.01; in that of `CC(=O)c1ccsc1`, 1.24; in that of `CN(CCO)N=Nc1ccc(C(N)=O)cc1`, 0.26. Consider `Clc1cc(Cl)nc(-c2ccccc2)n1`, for which the logP came to 4.17.

In turn, `COc1cc(O)ccc1O` had a logP of 0.47.

As for `CCOP(=S)(OCC)O/N=C(\C#N)c1ccccc1`, the log partition coefficient (logP) worked out at 4.39. In the case of `NS(=O)(=O)c1cc2c(cc1Cl)N=CNS2(=O)=O` it was -0.24. With `O=C(O)c1c(F)cccc1Cl` the figure was 2.11; with `CN(C)N=Nc1cccc(Cl)c1`, 3.44; with `CNC(=O)Oc1cccc(C=O)c1`, 0.92.

`CN(C)CCN1c2ccccc2Sc2ccccc21` gave a logP of 4.2.

The compound `O=C(O)CCCl` yielded a logP of 0.41. Regarding `O=[N+]([O-])c1ccc(OC2OC(CO)C(O)C(O)C2O)cc1` (stereo not given), the logP was -0.44.

In turn, `NCCc1ccccn1` returned a log partition coefficient (logP) of 0.08. Compound `CC(C)C(=O)C(C)C` gave a logP of 1.86. `O=c1[nH]cc(C(F)(F)F)c(=O)[nH]1` came in with a logP of 0.04. As to `Cc1ccc(Cc2c[nH]c(NCCSCc3ccc(CN(C)C)o3)nc2=O)cn1`, the log partition coefficient (logP) amounted to 2.06. In the case of `CC1=NOC(=O)C1=NNc1ccccc1Cl` it was 2.6; in that of `NC(=O)CCl`, -0.53. With `O=S(=O)(Nc1ccccc1)C(F)F` the figure was 1.95; with `CC1Nc2cc(Cl)c(S(N)(=O)=O)cc2S(=O)(=O)N1` (stereo not given), 0.08; with `COP(=O)(OC)OC(Br)C(Cl)(Cl)Br` (stereo not given), 1.38. In the case of `ClC(Cl)(Cl)C(c1ccccc1)c1ccccc1` it was 4.87.
